These results are taken from patent EP4559919A1, “TRICYCLIC-CONTAINING MACROCYCLIC COMPOUND AND USE THEREOF” (Medshine Discovery Inc., priority 2022, dated 2024).

One assay addresses T1, CYP2C19 (Homo sapiens, UniProt P33261).
T1 construct: Mixed human liver microsomes (HLM) purchased from Corning Inc; tissue Corning Inc; host or cells: pooled human liver microsomes
The experiment in a line: Cytochrome P450 isozyme inhibitory activity test (human liver microsomes). The format is in vitro ADME. The conditions noted are these: human liver microsomes 0.1 mg/mL. On the technique in general: Microsomes from liver hold many membrane-bound enzymes, among them those of drug oxidation.

Assay [1] has as its system Ba/F3-EML4-ALK-G1202R/L1196M. The experiment in a line: Anti-proliferative activity test on Ba/F3 cell lines (CellTiter-Glo). The format is cell-based. To be noted: Ba/F3 EML4-ALK-G1202R-L1196M; 72 hours; read-out: Half maximal inhibitory concentration IC50 for cells Ba/F3-EML4-ALK-G1202R/L1196 M. In short, it runs like this: (§1)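 Cells (2000/well) were exposed for 72 h at 37°C, 5% CO2, to an 8-point 3-fold series (1000× plate starting at 1 µM), with 0.1% DMSO final. Viability was read by CellTiter-Glo luminescence. Inhibition was normalised to DMSO (Max) and cell-free (Min) controls, and IC50 was taken from the curves.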
For orientation: In ATP-based viability assays light output follows the ATP content of the culture.

A further assay relates to Ba/F3-TEL-TRKB. Described as above. In kind it is cell-based. To be noted: Mus musculus, BaF3; 72 hours; read-out: Half maximal inhibitory concentration IC50 for cells Ba/F3-TEL-TRKB. An outline of the steps:
as §1

T1 sequence (P33261 whole entry): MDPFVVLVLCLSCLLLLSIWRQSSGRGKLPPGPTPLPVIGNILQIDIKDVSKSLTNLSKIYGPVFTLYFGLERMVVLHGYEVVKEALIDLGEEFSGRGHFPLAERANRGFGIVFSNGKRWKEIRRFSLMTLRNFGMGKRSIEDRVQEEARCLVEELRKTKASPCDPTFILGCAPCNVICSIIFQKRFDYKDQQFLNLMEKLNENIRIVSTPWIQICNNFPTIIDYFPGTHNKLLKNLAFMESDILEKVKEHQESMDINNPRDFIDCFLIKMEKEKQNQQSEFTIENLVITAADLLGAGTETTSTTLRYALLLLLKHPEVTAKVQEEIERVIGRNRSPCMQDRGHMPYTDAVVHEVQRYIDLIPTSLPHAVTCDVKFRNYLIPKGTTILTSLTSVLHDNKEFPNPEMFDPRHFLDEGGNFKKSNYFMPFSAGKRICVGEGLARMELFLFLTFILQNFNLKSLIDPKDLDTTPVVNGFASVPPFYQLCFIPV

With `Cc1nn2cc3c4nc2c1C(=O)NC1(CC1)COc1ccc(F)cc1CN4[C@H](C(F)F)CO3` [Compound 016], the IC50 against CYP2C19 turned out to be 22700 nM; in assay [1], 12.5 nM; with Ba/F3-TEL-TRKB it was 0.6 nM.
